Measured values published in patent US9371387B2 (GACHON UNIVERSITY OF INDUSTRY-ACADEMIC COOPERATION …, priority 2011, dated 2016).

Tested on: human macrophage cells
Assay: AGE-albumin synthesis and release by macrophages under oxidative stress (ELISA)
Type: cell-based
Details: FIG. 3
Experimental: For the in vitro study, immortal human macrophage cells were employed. The macrophages were grown in DMEM (Dulbecco's modified Eagle's medium, Gibco)-high glucose supplemented with 10% heat-inactivated FBS (fetal bovine serum, Gibco) and […] gentamicin (Sigma-Aldrich) at 37° C. in a 5% CO2 atmosphere.
After incubation at 4° C. for 12 hrs, the plates were washed three times with 1×PBS to remove the antibody which remained non-immobilized to the well, and then was filled with 5% BSA. […] After the plates were washed three time with 1×PBS to remove the antigens which remained unreacted, an anti-AGE antibody (Abcam) was applied at a concentration of 1 ug/ml to each well and incubated at room temperature for 2 hrs. The antibody remaining unreacted was washed off with 1×PBS. Each well was incubated with 1 ug/ml peroxidase-conjugated secondary antibody (Vector laboratory) at room temperature for 2 hrs and washed with 1×PBS to remove the secondary antibodies which remained unreacted. Color was developed with TMB (3,3′,5,5′-tetramethylbenzidine) at room temperature for 20 min. When the TMP buffer turned dark blue, the color development was stopped with 2NH2SO4. Absorbance at 450 nm was read on an ELISA reader (VERSA Max, Molecular Devices) (FIG. 1).

Row | Structure (SMILES) | expression level of AGE-albumin (macrophages, addition of antioxidant, irrespective of hypoxia (H2O2)) | amount of AGE-albumin (macrophages exposed to hydrogen peroxide)
1 | O=C1O[C@H]([C@@H](O)CO)C(O)=C1O [ascorbic acid] | drastically reduced | 
2 | OO [hydrogen peroxide] |  | increased in a concentration-dependent manner
